The text below walks through data of patent US8063041B2 (Wyeth LLC, priority 2009, dated 2011).

Series [1] can be described thus: Solubility of bazedoxifene acetate forms (dynamic dissolution method using Crystal-16 and HPLC method). It counts as physicochemical. The following applies: for solubility compared with Form B: crystallization solvent. Here is the method: The profiles of the temperature and magnetic stirring speed for each row may be independently adjusted. The turbidity of each vial was monitored and plotted with the temperature profiles to determine dissolution and precipitation points of solids. A pre-weighed amount of solid and solvent were mixed together in clear glass vials, and were heated slowly (at 0.2° C./min). The dissolution temperature was recorded. The concentration of the solution (calculated based on the weight of solid and solvent) was treated as the saturation concentration at the recorded temperature, and solubility was calculated based on this concentration. […] The suspension was filtered after stirring for 30 minutes and the solution concentration was analyzed by HPLC. The measured solubility data for the two methods are plotted in FIGS. 4 and 5.

Series [2] deals with ovariectomized rat. To be noted: ovariectomized rat model of osteopenia; cited from earlier work.
Series [3] has as its system uterine response. To be noted: preclinical models of uterine stimulation; cited from earlier work.
Series [4] relates to MCF-7 cell line (human breast cancer cell line). The following applies: cited from earlier work.

Consider `CC(=O)O.Cc1c(-c2ccc(O)cc2)n(Cc2ccc(OCCN3CCCCCC3)cc2)c2ccc(O)cc12` [Form A], for which, in series [1] (all conditions studied, crystallization solvent and slurry test solvent), the “solubility compared with other forms” value was “higher than Forms B and D”.
As for `Cc1c(-c2ccc(O)cc2)n(Cc2ccc(OCCN3CCCCCC3)cc2)c2ccc(O)cc12` [Form D, 1-[4-(2-azepan-1-yl-ethoxy)-benzyl]-2-(4-hydroxy-phenyl)-3-methyl-1H-indol-5-ol acetic acid], in series [1] (at 0-60° C.), the “solubility compared with Form A” value is given as “less soluble”. The results for the “solubility compared with Form B” value in series [1] (above about 30° C.) and in series [1] (below about 30° C.) were “slightly higher than that of Form B” and “very similar to Form B solubility”, respectively.
With `Cc1c(-c2ccc(O)cc2)n(Cc2ccc(OCCN3CCCCCC3)cc2)c2ccc(O)cc12` [bazedoxifene acetate, 1-[4-(2-azepan-1-yl-ethoxy)-benzyl]-2-(4-hydroxy-phenyl)-3-methyl-1H-indol-5-ol acetic acid], in series [2], the preventing bone loss entry is “estrogen agonist-like effect” and the reducing cholesterol result is recorded as “estrogen agonist-like effect”. Further, the “stimulation of uterine response” value in series [3] is “little or no stimulation”. For the same compound, in series [4], the estrogen agonist/antagonist behaviour result is listed as “behaves as an estrogen antagonist”.
